# In patent publication US9879023B2, “Therapeutic compounds” (Gilead Sciences, Inc., priority 2011, dated 2018):
# pEC50: −log10 of the molar value.
# Tested on: HIV-IIIb (MT-4 cells)
# Assay: Test A: Antiviral Assays in MT4 Cells
# Type: cell-based
# Settings: Human immunodeficiency virus 1, IIIB, MT4, 120 h, MT-4 cells infected with HIV-IIIb (0.004 m.o.i.), 5 days incubation, CellTiter-Glo readout; read-out: EC50
# Description: Test A: Antiviral Assays in MT4 Cells
# For the antiviral assay utilizing MT-4 cells, 0.4 μL of […] test concentration of 3-fold serially diluted compound in DMSO was added to 40 μL of cell growth medium (RPMI 1640, 10% FBS, 1% penicilline/Streptomycine, 1% L-Glutamine, 1% HEPES) in each well of 384-well assay plates (10 concentrations) in quadruplicate.
# 1 mL aliquots of 2×10e6 MT-4 cells are pre-infected for 1 and 3 hrs respectively, @37° C. with 25 uL (MT4) or of either cell growth medium (mock-infected) or a fresh 1:250 dilution of an HIV-IIIb concentrated ABI stock (0.004 m.o.i. for MT4 cells). Infected and uninfected cells are diluted in cell growth medium and 35 uL of 2000 (for MT4) cells is added to each well of the assay plates.
# Assay plates were then incubated in a 37° C. incubator. After 5 days of incubation, 25 μl of 2× concentrated CellTiter-Glo™ Reagent (catalog # G7573, Promega Biosciences, Inc., Madison, Wis.) was added to each well of the assay plate. Cell lysis was carried out by incubating at room temperature for 2-3 min and then chemiluminescence was read using the Envision reader (PerkinElmer). […]
row,Structure (SMILES),pEC50
1,"Cc1cc2nc(N(C)Cc3ccccc3)sc2c(-c2ccc3c4c(ccnc24)CCO3)c1[C@H](OC(C)(C)C)C(=O)O [Compound 63, (2S)-2-(2-(benzyl(methyl)amino)-7-(2,3-dihydropyrano[4,3,2-de]quinolin-7-yl)-5-methylbenzo[d]thiazol-6-yl)-2-tert-butoxyacetic acid]",6.45
2,"Cc1cc2nc(C(=O)O)sc2c(-c2ccc3c4c(ccnc24)CCO3)c1[C@H](OC(C)(C)C)C(=O)O (atropisomer, axis not shown) [Compound 41]",6.03
3,"Cc1cc2nc(C(N)=O)sc2c(-c2ccc3c4c(ccnc24)CCO3)c1[C@H](OC(C)(C)C)C(=O)O [Compound 40, (S)-2-tert-butoxy-2-((S)-2-carbamoyl-7-(2,3-dihydropyrano[4,3,2-de]quinolin-7-yl)-5-methylbenzo[d]thiazol-6-yl)acetic acid]",6.14
4,"Cc1cc2nc(C3CC3)sc2c(-c2ccc3c4c(cccc24)CCO3)c1[C@H](OC(C)(C)C)C(=O)O [Compound 85, (S)-2-tert-butoxy-2-((S)-2-cyclopropyl-7-(2,3-dihydrobenzo[de]chromen-7-yl)-5-methylbenzo[d]thiazol-6-yl)acetic acid]",7.18
5,"Cc1cc2nc(C3CCC3)sc2c(-c2ccc3c4c(ccnc24)CCO3)c1[C@H](OC(C)(C)C)C(=O)O (atropisomer, axis not shown) [Compound 82, (S)-2-tert-butoxy-2-((S)-2-cyclobutyl-7-(2,3-dihydropyrano[4,3,2-de]quinolin-7-yl)-5-methylbenzo[d]thiazol-6-yl)acetic acid]",7.40
6,"CNC(=O)c1nc2cc(C)c([C@H](OC(C)(C)C)C(=O)O)c(-c3ccc4c5c(ccnc35)CCO4)c2s1 (atropisomer, axis not shown) [Compound 97, (S)-2-tert-butoxy-2-((S)-7-(2,3-dihydropyrano[4,3,2-de]quinolin-7-yl)-5-methyl-2-(methylcarbamoyl)benzo[d]thiazol-6-yl)acetic acid]",5.91
7,"Cc1cc2nc(C(F)F)sc2c(-c2ccc3c4c(ccnc24)CCO3)c1[C@H](OC(C)(C)C)C(=O)O (atropisomer, axis not shown) [Compound 92, (S)-2-tert-butoxy-2-((S)-2-(difluoromethyl)-7-(2,3-dihydropyrano[4,3,2-de]quinolin-7-yl)-5-methylbenzo[d]thiazol-6-yl)acetic acid]",6.45
8,"CC(=O)Nc1nc2cc(C)c([C@H](OC(C)(C)C)C(=O)O)c(-c3ccc4c5c(ccnc35)CCO4)c2s1 (atropisomer, axis not shown) [Compound 93, (S)-2-((S)-2-acetamido-7-(2,3-dihydropyrano[4,3,2-de]quinolin-7-yl)-5-methylbenzo[d]thiazol-6-yl)-2-tert-butoxyacetic acid]",5.85
9,"Cc1cc2nc(OC(C)C)sc2c(-c2ccc3c4c(ccnc24)CCO3)c1[C@H](OC(C)(C)C)C(=O)O (atropisomer, axis not shown) [Compound 70, (S)-2-tert-butoxy-2-((S)-7-(2,3-dihydropyrano[4,3,2-de]quinolin-7-yl)-2-isopropoxy-5-methylbenzo[d]thiazol-6-yl)acetic acid]",7.09
10,Cc1cc2nc(C3CC3)sc2c(-c2ccc(Cl)cc2)c1[C@H](OC(C)(C)C)C(=O)O [Compound 10],6.92
11,"Cc1cc2nc(CC(C)C)sc2c(-c2ccccc2)c1[C@H](OC(C)(C)C)C(=O)O [Compound 8K, (S)-2-tert-butoxy-2-(2-isobutyl-5-methyl-7-phenylbenzo[d]thiazol-6-yl)acetic acid]",6.19
12,"Cc1cc2c(sc(=O)n2Cc2cccc(C(F)(F)F)c2)c(-c2ccc3c4c(ccnc24)CCO3)c1[C@H](OC(C)(C)C)C(=O)O (atropisomer, axis not shown) [Compound 73, (S)-2-tert-butoxy-2-((S)-7-(2,3-dihydropyrano[4,3,2-de]quinolin-7-yl)-5-methyl-2-oxo-3-(3-(trifluoromethyl)benzyl)-2,3-dihydrobenzo[d]thiazol-6-yl)acetic acid]",7.28
13,Cc1cc2nc(C(=O)C3=CCC3)sc2c(-c2ccc(Cl)cc2)c1[C@H](OC(C)(C)C)C(=O)O [Compound 14b],6.32
14,"Cc1cc2nc(C(=O)NCCc3ccccc3)sc2c(-c2ccc3c4c(ccnc24)CCO3)c1[C@H](OC(C)(C)C)C(=O)O (atropisomer, axis not shown) [Compound 98, (S)-2-tert-butoxy-2-((S)-7-(2,3-dihydropyrano[4,3,2-de]quinolin-7-yl)-5-methyl-2-(phenethylcarbamoyl)benzo[d]thiazol-6-yl)acetic acid]",5.60

# Same assay, conditions: MT-4 cells infected with HIV-IIIb (0.004 m.o.i.), 5 days incubation, CellTiter-Glo readout; read-out: EC50
row,Structure (SMILES),pEC50
1,"Cc1cc2nc(C3=CCCC3)sc2c(-c2ccc3c4c(ccnc24)CCO3)c1[C@H](OC(C)(C)C)C(=O)O (atropisomer, axis not shown) [Compound 79, (S)-2-tert-butoxy-2-((R)-2-cyclopentenyl-7-(2,3-dihydropyrano[4,3,2-de]quinolin-7-yl)-5-methylbenzo[d]thiazol-6-yl)acetic acid]",4.34
2,"Cc1cc2nc(N(C)CC3OCCO3)sc2c(-c2ccc3c4c(ccnc24)CCO3)c1[C@H](OC(C)(C)C)C(=O)O (atropisomer, axis not shown) [Compound 60, (S)-2-((R)-2-(((1,3-dioxolan-2-yl)methyl)(methyl)amino)-7-(2,3-dihydropyrano[4,3,2-de]quinolin-7-yl)-5-methylbenzo[d]thiazol-6-yl)-2-tert-butoxyacetic acid]",4.46
3,"Cc1cc2nc(N3CCC3)sc2c(-c2ccc3c4c(ccnc24)CCO3)c1[C@H](OC(C)(C)C)C(=O)O [Compound 36, (S)-2-((R)-2-(azetidin-1-yl)-7-(2,3-dihydropyrano[4,3,2-de]quinolin-7-yl)-5-methylbenzo[d]thiazol-6-yl)-2-tert-butoxyacetic acid]",5.21
4,"Cc1cc2nc(C3CC3)sc2c(-c2ccc3c(c2Cl)NCCO3)c1[C@H](OC(C)(C)C)C(=O)O (atropisomer, axis not shown) [Compound 86, (S)-2-tert-butoxy-2-((S)-7-(5-chloro-3,4-dihydro-2H-benzo[b][1,4]oxazin-6-yl)-2-cyclopropyl-5-methylbenzo[d]thiazol-6-yl)acetic acid]",7.21
5,"Cc1cc2nc(N(C)C(C)C)sc2c(-c2ccc3c4c(ccnc24)CCO3)c1[C@H](OC(C)(C)C)C(=O)O (atropisomer, axis not shown) [Compound 47, (S)-2-tert-butoxy-2-((R)-7-(2,3-dihydropyrano[4,3,2-de]quinolin-7-yl)-2-(isopropyl(methyl)amino)-5-methylbenzo[d]thiazol-6-yl)acetic acid]",4.58
6,"Cc1cc2nc(N(C)CC(C)C)sc2c(-c2ccc3c4c(ccnc24)CCO3)c1[C@H](OC(C)(C)C)C(=O)O (atropisomer, axis not shown) [Compound 48, (S)-2-tert-butoxy-2-((S)-7-(2,3-dihydropyrano[4,3,2-de]quinolin-7-yl)-2-(isobutyl(methyl)amino)-5-methylbenzo[d]thiazol-6-yl)acetic acid]",7.17
7,"Cc1cc2nc(C3CCCC3)sc2c(-c2ccc3c4c(ccnc24)CCO3)c1[C@H](OC(C)(C)C)C(=O)O (atropisomer, axis not shown) [Compound 80, (S)-2-tert-butoxy-2-((S)-2-cyclopentyl-7-(2,3-dihydropyrano[4,3,2-de]quinolin-7-yl)-5-methylbenzo[d]thiazol-6-yl)acetic acid]",6.87
